Calls of active or inactive are those of the source.

For assay [1], the target named is T1, Probable nicotinate-nucleotide adenylyltransferase (Staphylococcus aureus (strain N315), UniProt P65502). Type of assay: functional, Staphylococcus aureus subsp. aureus N315.
Assay [2] has as its target T2, Runt-related transcription factor 1/Core-binding factor subunit beta (Homo sapiens, UniProt Q01196+Q13951). Nature of the assay: disruptors of Runt domain/CBFb-SMMHC interaction – biochemical, FRET, Cerulean-Runt, Venus-CBFb-SMMHC, uHTS, […] (AID 1434). Type of assay: protein assay.
The target of assay [3] is T3, Low molecular weight phosphotyrosine protein phosphatase (Homo sapiens, UniProt P24666).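 Further: Dose-response confirmation assay measuring inhibition of LMPTP enzyme activity by fluorescence intensity read-out.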
T3 sequence (P24666 whole entry): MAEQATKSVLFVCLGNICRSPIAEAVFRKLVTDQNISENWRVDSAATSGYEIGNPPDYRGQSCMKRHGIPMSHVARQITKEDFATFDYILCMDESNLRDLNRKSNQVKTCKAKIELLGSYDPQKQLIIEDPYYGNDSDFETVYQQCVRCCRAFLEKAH
Type of assay: functional. The note with it: read-out: IC50_Mean.

For assay [4], the target named is T4, Corticotropin-releasing factor receptor 2/Corticotropin-releasing factor-binding protein (Homo sapiens, UniProt P24387+Q13324).
T4 sequence (Q13324 whole entry): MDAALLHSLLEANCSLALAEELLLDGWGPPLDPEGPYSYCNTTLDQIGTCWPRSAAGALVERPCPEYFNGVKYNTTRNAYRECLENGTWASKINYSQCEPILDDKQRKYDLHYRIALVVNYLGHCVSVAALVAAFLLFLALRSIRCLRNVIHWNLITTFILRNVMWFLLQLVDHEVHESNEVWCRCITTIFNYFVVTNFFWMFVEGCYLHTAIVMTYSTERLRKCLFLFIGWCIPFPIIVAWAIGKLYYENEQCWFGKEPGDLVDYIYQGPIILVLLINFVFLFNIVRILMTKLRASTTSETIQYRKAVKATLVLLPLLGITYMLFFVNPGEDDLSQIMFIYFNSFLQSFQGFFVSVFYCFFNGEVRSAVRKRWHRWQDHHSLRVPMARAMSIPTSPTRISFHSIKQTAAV
T4 sequence (P24387 whole entry): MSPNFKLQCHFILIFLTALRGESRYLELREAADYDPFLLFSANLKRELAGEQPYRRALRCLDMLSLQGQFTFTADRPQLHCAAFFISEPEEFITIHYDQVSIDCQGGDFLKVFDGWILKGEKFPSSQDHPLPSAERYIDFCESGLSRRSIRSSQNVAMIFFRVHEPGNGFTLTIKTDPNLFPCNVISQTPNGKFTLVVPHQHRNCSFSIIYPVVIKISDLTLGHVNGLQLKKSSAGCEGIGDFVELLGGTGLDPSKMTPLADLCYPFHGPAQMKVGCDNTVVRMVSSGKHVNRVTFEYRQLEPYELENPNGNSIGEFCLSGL
Nature of the assay: activators of CRF receptor 2 with binding protein – uHTS hits, confirmation (AID 602473). Type of assay: functional. The note with it: read-out: EC50_Mean.

The target in assay [5] is T2, Runt-related transcription factor 1/Core-binding factor subunit beta. Nature of the assay: Runt domain/CBFb-SMMHC interaction disruptors – biochemical, TR-FRET (AID 1438). Type of assay: protein assay. Background: In TR-FRET formats the signal depends on donor and acceptor labels being close together.
The target in assay [6] is Induced myeloid leukemia cell differentiation protein Mcl-1 (Homo sapiens, UniProt Q07820). It counts as functional.
Assay [7] has as its target T1, Probable nicotinate-nucleotide adenylyltransferase. Type of assay: functional, Staphylococcus aureus subsp. aureus N315. The note with it: read-out: IC50_Mean.
The target of a further assay is Coagulation factor XII (Homo sapiens, UniProt P00748). Type of assay: functional.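 Further: activated factor XIIa alpha cleaving a fluorogenic AMC peptide substrate; inhibitor potency from loss of enzyme activity.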
For assay [8], the target named is T5, Peroxisome proliferator-activated receptor gamma (Homo sapiens, UniProt P37231).
T5 sequence (P37231 whole entry): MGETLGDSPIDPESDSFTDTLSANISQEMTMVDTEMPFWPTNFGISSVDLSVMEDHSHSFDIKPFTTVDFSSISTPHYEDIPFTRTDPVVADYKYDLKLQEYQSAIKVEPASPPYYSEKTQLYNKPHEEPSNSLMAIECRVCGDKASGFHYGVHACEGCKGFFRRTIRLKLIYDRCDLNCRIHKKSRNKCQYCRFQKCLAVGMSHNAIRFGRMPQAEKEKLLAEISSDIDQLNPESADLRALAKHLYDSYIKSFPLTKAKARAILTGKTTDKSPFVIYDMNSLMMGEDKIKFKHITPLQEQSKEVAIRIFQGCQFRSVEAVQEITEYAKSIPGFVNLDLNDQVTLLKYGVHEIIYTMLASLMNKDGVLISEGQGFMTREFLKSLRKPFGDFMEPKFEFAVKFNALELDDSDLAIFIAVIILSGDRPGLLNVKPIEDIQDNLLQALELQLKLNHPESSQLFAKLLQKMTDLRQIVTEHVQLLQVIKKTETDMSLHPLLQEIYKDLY
Kind of assay: PPARg transcriptional activation, reporter cells – cell-based, luminescence, assay provider, dose response (AID 504447). It counts as functional.

Assay [9] deals with T5, Peroxisome proliferator-activated receptor gamma. Nature of the assay: competitive ligand displacement at PPARg – biochemical, TR-FRET, LanthaScreen, PPARg partial agonist project, dose response (AID 504446).
For assay [10] the target is unchanged. Kind of assay: competitive ligand displacement at PPARg – biochemical, fluorescence polarization, PolarScreen, PPARg partial agonist project, dose response (AID 504453). (In general: Polarisation of emitted light reports the rotation of a fluorescent probe.)
Another assay deals with Ion channel NompC (Danio rerio, UniProt Q7T1G6). Kind of assay: Dose response cell-based high-throughput screening assay for agonists of the transient receptor potential channel N1 (TRPN1). [Related pubchem assays (depositor defined):AID1424, AID1448]. It counts as functional.
For the next assay, the target named is Mucolipin-3 (Homo sapiens, UniProt Q8TDD5). Nature of the assay: Fluorescence counterscreen assay for […] agonists: dose response cell-based high-throughput screening assay to identify agonists of the transient receptor potential channel ML3 (TRPML3). [Related pubchem assays: 1424, 1448 ]. It counts as functional. (A counterscreen serves to expose hits that act by an unwanted route or on another target.)

Assay [11] addresses T6, Zinc finger protein mex-5 (Caenorhabditis elegans, UniProt Q9XUB2).
T6 sequence (Q9XUB2 whole entry): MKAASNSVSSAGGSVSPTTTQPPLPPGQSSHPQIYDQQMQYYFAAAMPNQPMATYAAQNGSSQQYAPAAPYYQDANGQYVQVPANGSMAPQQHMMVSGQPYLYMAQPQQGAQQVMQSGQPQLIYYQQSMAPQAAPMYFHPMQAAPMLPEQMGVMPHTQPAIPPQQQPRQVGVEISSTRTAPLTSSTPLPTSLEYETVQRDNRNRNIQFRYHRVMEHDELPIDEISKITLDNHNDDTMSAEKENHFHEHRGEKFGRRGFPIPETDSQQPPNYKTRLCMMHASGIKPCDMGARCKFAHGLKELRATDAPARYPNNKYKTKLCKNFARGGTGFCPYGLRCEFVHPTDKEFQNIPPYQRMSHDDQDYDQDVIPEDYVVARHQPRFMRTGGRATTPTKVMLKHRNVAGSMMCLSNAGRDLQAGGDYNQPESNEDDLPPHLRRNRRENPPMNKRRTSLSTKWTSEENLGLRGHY
Kind of assay: potency of MEX-5 RNA-binding blockers – biochemical, C. elegans, fluorescence polarization, dose response (AID 1960).

The target in assay [12] is T7, RNA-binding protein pos-1 (Caenorhabditis elegans, UniProt G5EF15).
T7 sequence (G5EF15 whole entry): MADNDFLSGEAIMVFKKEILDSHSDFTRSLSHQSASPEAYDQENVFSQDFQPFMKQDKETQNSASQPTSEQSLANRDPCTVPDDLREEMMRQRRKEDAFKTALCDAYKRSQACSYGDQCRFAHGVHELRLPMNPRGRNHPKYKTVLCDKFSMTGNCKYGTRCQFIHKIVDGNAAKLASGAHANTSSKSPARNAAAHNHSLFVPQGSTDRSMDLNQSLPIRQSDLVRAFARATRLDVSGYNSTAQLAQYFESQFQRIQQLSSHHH
Nature of the assay: disruptors of C. elegans POS-1 RNA interaction – biochemical, fluorescence polarization, dose response (AID 1964).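 Further: purified POS-1 fused to maltose binding protein made in E. coli; potency of compounds blocking POS-1 binding to fluorescent RNA.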

Assay [13] addresses T8, G-protein coupled receptor 35 (Homo sapiens, UniProt Q9HC97). Kind of assay: SAR analysis of Antagonists of the GPR35 Receptor using an Image-Based Assay - Set 6. [Related pubchem assays (depositor defined):AID2013, AID2026]. It counts as functional.
For assay [14], the target named is T8, G-protein coupled receptor 35. Kind of assay: SAR analysis of Agonists of the GPR35 Receptor using an Image-Based Assay - Set 4. [Related pubchem assays (depositor defined):AID2013, AID2026]. Type of assay: functional.
In assay [15] the target is T9, Cannabinoid receptor 2 (Homo sapiens, UniProt P34972). Kind of assay: SAR analysis of agonists of the Cannabinoid Receptor 2 using an Image-Based Assay - Set 3. [Related pubchem assays (depositor defined):AID2013, AID2026]. It counts as functional.
In assay [16] the target is G-protein coupled receptor 55 (Homo sapiens, UniProt Q9Y2T6). Nature of the assay: SAR Analysis of Selective Antagonists of GPR55 using an Image-Based Assay - Set 4. [Related pubchem assays (depositor defined):AID2013, AID2026]. Type of assay: functional.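 Further: antagonism of response to 5 µM lysophosphatidylinositol agonist.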
Assay [17] has as its target T9, Cannabinoid receptor 2. Nature of the assay: SAR analysis of antagonists of the Cannabinoid Receptor 2 using an Image-Based Assay - Set 3. [Related pubchem assays (depositor defined):AID2013, AID2026]. Type of assay: functional.
For assay [18], the target named is T10, Cannabinoid receptor 1 (Homo sapiens, UniProt P21554). Kind of assay: SAR analysis of antagonists of the Cannabinoid Receptor 1 using an Image-Based Assay - Set 4. [Related pubchem assays (depositor defined):AID2013, AID2026]. Type of assay: functional.
In assay [19] the target is T10, Cannabinoid receptor 1. Kind of assay: SAR analysis of agonists of the Cannabinoid Receptor 1 using an Image-Based Assay - Set 4. [Related pubchem assays (depositor defined):AID2013, AID2026]. It counts as functional.
Assay [20] concerns the target T11, Delta-type opioid receptor (Homo sapiens, UniProt P41143). Kind of assay: DOR agonists, SAR follow-up, image-based (AID 2370). Type of assay: functional.
For assay [21], the target named is T12, Kappa-type opioid receptor (Homo sapiens, UniProt P41145). Kind of assay: kappa opioid receptor blockers, image-based, SAR follow-up (AID 2348). Type of assay: functional.
Assay [22] deals with T12, Kappa-type opioid receptor. Nature of the assay: SAR analysis of small molecule agonists of the kappa opioid receptor via a luminescent beta-arrestin assay. [Related pubchem assays (depositor defined):AID1777, AID1786, AID1966, AID2133, AID2136, AID2348, AID2352, AID2357, AID2359, AID2370, AID2420, AID2478, AID2491, AID2492, AID2493, AID2497, AID2498, AID2500, AID449737, AID488822, AID488842]. It counts as functional.

Assay [23] has as its target T13, Mu-type opioid receptor (Homo sapiens, UniProt P35372). Kind of assay: mu opioid receptor activators, image-based, SAR follow-up (AID 2352). It counts as functional.
The target in assay [24] is T11, Delta-type opioid receptor. Nature of the assay: delta opioid receptor blockers – image-based, SAR follow-up (AID 2357). Type of assay: functional.
Assay [25] has as its target T13, Mu-type opioid receptor. Nature of the assay: mu opioid receptor blockers – image-based, SAR follow-up (AID 2420).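 Further: compounds added before stimulation of receptor with agonist DAMGO.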 Type of assay: functional.

T8 sequence (Q9HC97 whole entry): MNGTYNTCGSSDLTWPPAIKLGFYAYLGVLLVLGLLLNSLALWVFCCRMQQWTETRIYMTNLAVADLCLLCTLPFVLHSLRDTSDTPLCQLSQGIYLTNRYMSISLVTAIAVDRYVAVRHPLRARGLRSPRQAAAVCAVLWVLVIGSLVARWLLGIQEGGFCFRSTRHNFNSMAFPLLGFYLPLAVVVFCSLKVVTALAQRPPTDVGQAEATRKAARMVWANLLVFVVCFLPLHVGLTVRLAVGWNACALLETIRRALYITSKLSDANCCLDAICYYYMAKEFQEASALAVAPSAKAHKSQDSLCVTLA
T12 sequence (P41145 whole entry): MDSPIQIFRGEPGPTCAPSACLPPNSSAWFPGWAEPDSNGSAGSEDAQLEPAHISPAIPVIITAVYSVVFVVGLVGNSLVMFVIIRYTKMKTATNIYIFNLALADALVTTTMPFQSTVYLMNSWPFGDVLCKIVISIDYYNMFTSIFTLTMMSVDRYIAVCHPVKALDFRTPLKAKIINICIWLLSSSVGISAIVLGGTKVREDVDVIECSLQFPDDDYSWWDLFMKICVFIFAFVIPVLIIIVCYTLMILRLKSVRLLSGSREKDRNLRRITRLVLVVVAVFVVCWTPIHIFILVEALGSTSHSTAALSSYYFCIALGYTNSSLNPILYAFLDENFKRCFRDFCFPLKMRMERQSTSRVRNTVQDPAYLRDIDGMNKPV
T10 sequence (P21554 whole entry): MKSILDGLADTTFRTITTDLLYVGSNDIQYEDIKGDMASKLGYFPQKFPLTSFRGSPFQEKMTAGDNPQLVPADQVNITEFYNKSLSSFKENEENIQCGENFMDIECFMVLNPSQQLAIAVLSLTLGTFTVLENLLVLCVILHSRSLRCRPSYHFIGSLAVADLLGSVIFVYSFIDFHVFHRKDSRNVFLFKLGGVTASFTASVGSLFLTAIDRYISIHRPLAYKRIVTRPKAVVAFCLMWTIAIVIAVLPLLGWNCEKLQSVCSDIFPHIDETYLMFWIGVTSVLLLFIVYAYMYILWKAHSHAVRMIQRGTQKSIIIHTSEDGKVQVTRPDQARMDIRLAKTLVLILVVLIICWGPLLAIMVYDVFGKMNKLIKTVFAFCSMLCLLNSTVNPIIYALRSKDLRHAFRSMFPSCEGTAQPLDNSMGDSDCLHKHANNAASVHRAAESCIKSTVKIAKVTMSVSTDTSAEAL
T2 sequence (Q01196 whole entry, the tested form may be a part): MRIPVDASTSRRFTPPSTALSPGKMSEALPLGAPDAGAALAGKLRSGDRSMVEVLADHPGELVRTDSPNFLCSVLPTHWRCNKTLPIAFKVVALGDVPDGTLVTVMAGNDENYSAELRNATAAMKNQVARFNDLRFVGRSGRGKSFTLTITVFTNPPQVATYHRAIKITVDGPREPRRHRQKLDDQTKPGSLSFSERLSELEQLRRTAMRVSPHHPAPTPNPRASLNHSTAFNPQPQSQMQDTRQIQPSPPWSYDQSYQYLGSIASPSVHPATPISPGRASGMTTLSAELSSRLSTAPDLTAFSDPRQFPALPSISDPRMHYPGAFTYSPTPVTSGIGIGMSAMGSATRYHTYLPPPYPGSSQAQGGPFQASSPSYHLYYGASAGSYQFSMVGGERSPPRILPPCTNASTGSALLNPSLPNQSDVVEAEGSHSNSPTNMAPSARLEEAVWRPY
T2 sequence (Q13951 whole entry, the tested form may be a part): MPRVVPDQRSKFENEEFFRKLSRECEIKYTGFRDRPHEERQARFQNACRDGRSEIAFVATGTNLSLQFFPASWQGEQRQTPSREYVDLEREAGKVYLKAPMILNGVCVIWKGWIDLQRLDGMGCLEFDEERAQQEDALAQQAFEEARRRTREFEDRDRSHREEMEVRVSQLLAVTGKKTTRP
T1 sequence (P65502 whole entry, the tested form may be a part): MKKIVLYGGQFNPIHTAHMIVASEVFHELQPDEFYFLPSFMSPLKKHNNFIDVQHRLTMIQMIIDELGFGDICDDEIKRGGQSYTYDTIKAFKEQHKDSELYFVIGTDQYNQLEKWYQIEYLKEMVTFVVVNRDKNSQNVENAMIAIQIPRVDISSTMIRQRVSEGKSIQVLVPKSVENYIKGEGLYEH
T11 sequence (P41143 whole entry): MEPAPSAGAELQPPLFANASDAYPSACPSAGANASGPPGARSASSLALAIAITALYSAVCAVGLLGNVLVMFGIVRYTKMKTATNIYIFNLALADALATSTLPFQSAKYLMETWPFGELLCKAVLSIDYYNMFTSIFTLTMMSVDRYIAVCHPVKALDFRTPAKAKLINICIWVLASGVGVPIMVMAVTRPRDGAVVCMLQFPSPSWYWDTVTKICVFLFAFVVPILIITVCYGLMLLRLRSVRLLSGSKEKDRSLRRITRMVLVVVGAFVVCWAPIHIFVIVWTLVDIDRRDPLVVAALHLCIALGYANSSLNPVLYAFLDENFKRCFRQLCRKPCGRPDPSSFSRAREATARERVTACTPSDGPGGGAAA
T13 sequence (P35372 whole entry): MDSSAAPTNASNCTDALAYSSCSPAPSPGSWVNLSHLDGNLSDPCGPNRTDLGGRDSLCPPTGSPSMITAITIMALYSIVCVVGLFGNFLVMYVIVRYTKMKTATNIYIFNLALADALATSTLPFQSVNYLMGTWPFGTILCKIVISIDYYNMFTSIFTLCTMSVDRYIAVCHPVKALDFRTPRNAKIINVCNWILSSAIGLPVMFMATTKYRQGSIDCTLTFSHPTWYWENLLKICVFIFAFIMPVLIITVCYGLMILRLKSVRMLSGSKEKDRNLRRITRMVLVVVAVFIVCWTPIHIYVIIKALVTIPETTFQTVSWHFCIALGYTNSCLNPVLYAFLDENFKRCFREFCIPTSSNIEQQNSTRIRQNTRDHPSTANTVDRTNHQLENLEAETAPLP
T9 sequence (P34972 whole entry): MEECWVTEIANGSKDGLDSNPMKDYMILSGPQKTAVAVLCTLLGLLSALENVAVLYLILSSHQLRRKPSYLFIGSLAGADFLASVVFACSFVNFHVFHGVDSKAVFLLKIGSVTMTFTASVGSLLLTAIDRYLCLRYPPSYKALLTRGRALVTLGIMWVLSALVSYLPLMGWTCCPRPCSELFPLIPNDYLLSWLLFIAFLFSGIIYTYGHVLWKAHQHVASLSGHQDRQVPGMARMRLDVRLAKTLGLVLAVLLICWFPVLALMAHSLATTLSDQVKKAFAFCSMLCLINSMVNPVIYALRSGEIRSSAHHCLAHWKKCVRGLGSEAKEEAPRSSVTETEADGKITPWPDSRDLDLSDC
Induced myeloid leukemia cell differentiation protein Mcl-1, sequence (Q07820 whole entry): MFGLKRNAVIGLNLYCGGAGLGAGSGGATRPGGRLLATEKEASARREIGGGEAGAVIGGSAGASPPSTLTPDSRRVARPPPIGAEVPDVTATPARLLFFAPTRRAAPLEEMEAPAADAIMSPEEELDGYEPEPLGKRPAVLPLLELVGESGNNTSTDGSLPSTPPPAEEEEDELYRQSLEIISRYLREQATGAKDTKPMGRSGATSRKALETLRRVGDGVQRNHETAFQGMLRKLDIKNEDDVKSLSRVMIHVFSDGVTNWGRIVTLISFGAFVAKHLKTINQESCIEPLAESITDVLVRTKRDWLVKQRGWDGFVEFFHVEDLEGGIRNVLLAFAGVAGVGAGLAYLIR
G-protein coupled receptor 55, sequence (Q9Y2T6 whole entry): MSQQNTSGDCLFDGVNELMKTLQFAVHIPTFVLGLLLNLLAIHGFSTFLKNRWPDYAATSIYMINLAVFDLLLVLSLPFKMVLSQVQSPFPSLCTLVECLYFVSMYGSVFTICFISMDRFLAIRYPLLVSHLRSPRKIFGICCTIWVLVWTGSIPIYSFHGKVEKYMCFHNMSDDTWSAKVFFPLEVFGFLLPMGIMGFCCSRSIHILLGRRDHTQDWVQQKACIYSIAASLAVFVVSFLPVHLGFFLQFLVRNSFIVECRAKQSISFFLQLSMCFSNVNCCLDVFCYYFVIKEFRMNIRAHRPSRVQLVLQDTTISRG
Mucolipin-3, sequence (Q8TDD5 whole entry): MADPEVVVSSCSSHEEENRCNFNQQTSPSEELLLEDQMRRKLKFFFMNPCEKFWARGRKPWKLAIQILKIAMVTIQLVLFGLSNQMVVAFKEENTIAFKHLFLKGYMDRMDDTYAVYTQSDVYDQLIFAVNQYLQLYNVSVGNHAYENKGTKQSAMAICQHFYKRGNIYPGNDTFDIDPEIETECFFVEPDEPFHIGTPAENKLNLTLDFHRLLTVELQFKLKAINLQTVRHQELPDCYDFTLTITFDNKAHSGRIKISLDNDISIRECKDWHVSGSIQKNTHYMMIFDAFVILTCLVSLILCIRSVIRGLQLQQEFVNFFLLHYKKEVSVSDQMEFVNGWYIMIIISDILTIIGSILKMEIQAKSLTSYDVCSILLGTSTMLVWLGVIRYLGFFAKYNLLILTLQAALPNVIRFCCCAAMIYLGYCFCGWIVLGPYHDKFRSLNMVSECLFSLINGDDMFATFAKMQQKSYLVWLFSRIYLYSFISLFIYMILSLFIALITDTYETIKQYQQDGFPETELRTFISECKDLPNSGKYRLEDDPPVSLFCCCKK

`Oc1nc(C(Cl)Cl)nc2sc3c(c12)CCN(Cc1ccccc1)C3`: the IC50 in assay [1] was 9.04 µM (active); in assay [2], 2.89 µM (active); in assay [3], 7.87 µM (active); in assay [5], 13.4 µM (active); in [6] it was 3.75 µM (not active); in assay [7] it was 18.7 µM (active). Besides, in assay [4], the EC50 is > 53 µM (inactive).
For `COc1cc(-c2nnco2)cc(OC)c1OC`, on Coagulation factor XII, the IC50 was > 50 µM (inactive).
Regarding `COc1ccc2nc(N3C(=O)C(O)=C(C(=O)c4ccco4)C3c3ccc(C)o3)sc2c1` (centres undefined), the EC50 in assay [8] is 5 µM (active). Besides, the values for the IC50 in assay [9] and in assay [10] were 1.2 µM (active) and 5 µM (active), respectively.
For `Nc1c(C(=O)c2ccc(Cl)cc2)sc2nsc(SCCN3CCOCC3)c12`, the EC50 in assay [4] is 9.14 µM (active); at Ion channel NompC, > 9.97 µM (inactive); on Mucolipin-3 it was > 9.97 µM (not active); in [11], 74.2 µM (inconclusive); in [12] it was > 300 µM (not active).
For `N=c1c(C(=O)NCCc2ccccc2)cc2c(=O)n3ccccc3nc2n1C1CCCC1`, the IC50 (in assay [13]; in assay [16]; at Cannabinoid receptor 2 [17]; on Cannabinoid receptor 1 [18]) was > 32 µM (inactive) in each case. Further, the EC50 was > 32 µM (inactive) in assay [14], 3.61 µM (active) at Cannabinoid receptor 2 [15] and > 32 µM (inactive) on Cannabinoid receptor 1 [19].
On to `COc1ccc(CN(Cc2ccccn2)C(=O)CN2C(=O)COc3ccccc32)cc1`, for which the EC50 in [20] was > 32 µM (inactive); in assay [22], > 10 µM (inactive); on Mu-type opioid receptor [23], > 32 µM (inactive). The IC50 (in assay [21]; in assay [24]; on Mu-type opioid receptor [25]) was > 32 µM (inactive) throughout.

Source of the values: ChEMBL document CHEMBL1201862, “PubChem BioAssay data set” (2004).
